Results reported in PubChem BioAssay AID1963982 (Molecular Pharmacology Branch, DTP, NCI, 2024).

Test system: 313798-341-R-J2-PDC spheroids, viability
Assay: Anticancer human tumor 313798-341-R-J2-PDC patient-derived cervical squamous cell carcinoma cell line growth inhibition [PI3K]
Conditions: spheroids with HUVEC and MSC; for IC50: curve of first compound; for viability, T/C: stronger effect = lower value
Outline: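 Complex 3D spheroids (cancer cells + endothelial HUVEC + mesenchymal stem cells); drug pairs of targeted agent x inavolisib/alpelisib/duvelisib/copanlisib; half-log series from ~Cmax, max 10 microM if Cmax unknown; endpoint viability.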

[1] = second compound 0.00316 µM, first compound 0.0316 µM
[2] = second compound 0.00316 µM, first compound 0.1 µM
[3] = second compound 0.01 µM, first compound 0.0316 µM
[4] = second compound 0.01 µM, first compound 0.1 µM
[5] = second compound 0.0316 µM, first compound 0.0316 µM
[6] = second compound 0.0316 µM, first compound 0.1 µM
[7] = second compound 0.1 µM, first compound 0.0316 µM
[8] = second compound 0.1 µM, first compound 0.1 µM
[9] = second compound 0.316 µM, first compound 0.0316 µM
[10] = second compound 0.316 µM, first compound 0.1 µM
[11] = second compound 1 µM, first compound 0.0316 µM
[12] = second compound 1 µM, first compound 0.1 µM
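Also: spheroids exposed to compounds for seven days.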
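For viability, T/C in this document: 100% = DMSO vehicle control viability.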

CC(=O)c1c(C)c2cnc(Nc3ccc(N4CCNCC4)cn3)nc2n(C2CCCC2)c1=O + CC(Nc1ccc2c(c1)OCCn1cc(N3C(=O)OCC3C(F)F)nc1-2)C(N)=O gave an IC50 (second compound 0.00316 µM) of over 0.1 µM, an IC50 (second compound 0.01 µM) of over 0.1 µM and an IC50 (second compound 0.0316 µM) of over 0.1 µM. The IC50 (second compound 0.1 µM) was over 0.1 µM, the IC50 (second compound 0.316 µM) was over 0.1 µM and the IC50 (second compound 1 µM) was over 0.1 µM. It also gave a viability, T/C (second compound 0.00316 µM, first compound 0.000316 µM) of 98.7%, a viability, T/C (second compound 0.00316 µM, first compound 0.001 µM) of 97.9% and a viability, T/C (second compound 0.00316 µM, first compound 0.00316 µM) of 107%. The viability, T/C (second compound 0.00316 µM, first compound 0.01 µM) was 102%, the viability, T/C [1] was 110% and the viability, T/C [2] was 102%. The viability, T/C (second compound 0.01 µM, first compound 0.000316 µM) was 94.2%, the viability, T/C (second compound 0.01 µM, first compound 0.001 µM) was 100% and the viability, T/C (second compound 0.01 µM, first compound 0.00316 µM) was 113%. It also gave a viability, T/C (second compound 0.01 µM, first compound 0.01 µM) of 98.5%, a viability, T/C [3] of 124% and a viability, T/C [4] of 99.3%. The viability, T/C (second compound 0.0316 µM, first compound 0.000316 µM) was 105%, the viability, T/C (second compound 0.0316 µM, first compound 0.001 µM) was 114% and the viability, T/C (second compound 0.0316 µM, first compound 0.00316 µM) was 108%. The viability, T/C (second compound 0.0316 µM, first compound 0.01 µM) was 110%, the viability, T/C [5] was 103% and the viability, T/C [6] was 103%. It also gave a viability, T/C (second compound 0.1 µM, first compound 0.000316 µM) of 108%, a viability, T/C (second compound 0.1 µM, first compound 0.001 µM) of 102% and a viability, T/C (second compound 0.1 µM, first compound 0.00316 µM) of 102%. The viability, T/C (second compound 0.1 µM, first compound 0.01 µM) was 110%, the viability, T/C [7] was 103% and the viability, T/C [8] was 113%. For the same molecule, the viability, T/C (second compound 0.316 µM, first compound 0.000316 µM) was 82.8%, the viability, T/C (second compound 0.316 µM, first compound 0.001 µM) was 79.5% and the viability, T/C (second compound 0.316 µM, first compound 0.00316 µM) was 79.4%. It also gave a viability, T/C (second compound 0.316 µM, first compound 0.01 µM) of 86.1%, a viability, T/C [9] of 83.8% and a viability, T/C [10] of 90.6%. For the same molecule, the viability, T/C (second compound 1 µM, first compound 0.000316 µM) was 60.8%, the viability, T/C (second compound 1 µM, first compound 0.001 µM) was 57.5% and the viability, T/C (second compound 1 µM, first compound 0.00316 µM) was 58.3%. It also gave a viability, T/C (second compound 1 µM, first compound 0.01 µM) of 55.4%, a viability, T/C [11] of 61.6% and a viability, T/C [12] of 56.5%.

With CCCS(=O)(=O)Nc1ccc(F)c(C(=O)c2c[nH]c3ncc(-c4ccc(Cl)cc4)cc23)c1F + CC(Nc1ccc2c(c1)OCCn1cc(N3C(=O)OCC3C(F)F)nc1-2)C(N)=O the IC50 (second compound 0.00316 µM) was 6 µM, the IC50 (second compound 0.01 µM) was 6 µM and the IC50 (second compound 0.0316 µM) was 5.77 µM. It also gave an IC50 (second compound 0.1 µM) of 4.97 µM, an IC50 (second compound 0.316 µM) of 3.56 µM and an IC50 (second compound 1 µM) of 1.67 µM. For the same molecule, the viability, T/C [1] was 90.6%, the viability, T/C [2] was 98.7% and the viability, T/C (second compound 0.00316 µM, first compound 0.316 µM) was 88.4%. The viability, T/C (second compound 0.00316 µM, first compound 1 µM) was 114%, the viability, T/C (second compound 0.00316 µM, first compound 3.16 µM) was 97.9% and the viability, T/C (second compound 0.00316 µM, first compound 10 µM) was 11.9%. The viability, T/C [3] was 99.1%, the viability, T/C [4] was 95.8% and the viability, T/C (second compound 0.01 µM, first compound 0.316 µM) was 98.7%. It also gave a viability, T/C (second compound 0.01 µM, first compound 1 µM) of 106%, a viability, T/C (second compound 0.01 µM, first compound 3.16 µM) of 104% and a viability, T/C (second compound 0.01 µM, first compound 10 µM) of 9.37%. It also gave a viability, T/C [5] of 107%, a viability, T/C [6] of 97.8% and a viability, T/C (second compound 0.0316 µM, first compound 0.316 µM) of 97.7%. For the same molecule, the viability, T/C (second compound 0.0316 µM, first compound 1 µM) was 97.7%, the viability, T/C (second compound 0.0316 µM, first compound 3.16 µM) was 92.7% and the viability, T/C (second compound 0.0316 µM, first compound 10 µM) was 10.9%. The viability, T/C [7] was 104%, the viability, T/C [8] was 92.6% and the viability, T/C (second compound 0.1 µM, first compound 0.316 µM) was 84.9%. For the same molecule, the viability, T/C (second compound 0.1 µM, first compound 1 µM) was 92.6%, the viability, T/C (second compound 0.1 µM, first compound 3.16 µM) was 76% and the viability, T/C (second compound 0.1 µM, first compound 10 µM) was 9.75%. The viability, T/C [9] was 74.6%, the viability, T/C [10] was 82.1% and the viability, T/C (second compound 0.316 µM, first compound 0.316 µM) was 79.7%. The viability, T/C (second compound 0.316 µM, first compound 1 µM) was 73.6%, the viability, T/C (second compound 0.316 µM, first compound 3.16 µM) was 54.9% and the viability, T/C (second compound 0.316 µM, first compound 10 µM) was 8.5%. For the same molecule, the viability, T/C [11] was 50.5%, the viability, T/C [12] was 59.1% and the viability, T/C (second compound 1 µM, first compound 0.316 µM) was 59.5%. For the same molecule, the viability, T/C (second compound 1 µM, first compound 1 µM) was 58%, the viability, T/C (second compound 1 µM, first compound 3.16 µM) was 41.6% and the viability, T/C (second compound 1 µM, first compound 10 µM) was 8.44%.
